The test system of one data set is Mycobacterium marinum. As to the kind of experiment: Antimycobacterial activity against Mycobacterium marinum ATCC BAA-535/M assessed as inhibition of mycobacterial growth incubated for 10 to 14 days by resazurin microtiter assay. Type of data set: functional. To be noted: time 10-14 day. On the technique in general: Resazurin is reduced to fluorescent resorufin, in cell work by metabolically active cells.

The subject of data set [1] is Mycobacterium tuberculosis. As to the kind of experiment: Antimycobacterial activity against Mycobacterium tuberculosis mc2 6230 assessed as inhibition of mycobacterial growth incubated for 10 to 14 days by resazurin microtiter assay. Type of data set: functional. Conditions: time 10-14 day.
Data set [2] can be described thus: Cytotoxicity against C57BL/6 mouse BMDM cells assessed as reduction in cell viability measured after 24 hrs by resazurin dye based assay. Type of data set: toxicity. Conditions: C57BL/6, mouse, BMDM cells (bone marrow-derived macrophages).
In data set [3] the test system is Mycobacteroides abscessus. As to the kind of experiment: Antimycobacterial activity against Mycobacterium abscessus CIP104536T with rough morphotype assessed as inhibition of mycobacterial growth incubated for 3 to 5 days by resazurin microtiter assay. Type of data set: functional. Conditions: time 3-5 day.
The subject of data set [4] is Mycobacteroides abscessus. As to the kind of experiment: Antimycobacterial activity against Mycobacterium abscessus CIP104536T with smooth morphotype assessed as inhibition of mycobacterial growth incubated for 3 to 5 days by resazurin microtiter assay. Type of data set: functional. Conditions: time 3-5 day.

Each structure is given as a SMILES string. In brackets after ≈: the same amount, converted by molar mass.

For orientation: MIC50 means an inhibitory concentration at the 50% level, which refers to growth in some studies and to a panel of isolates in others. As usually defined, the MIC90 is the lowest concentration that inhibits either 90% of growth or 90% of the strains tested, depending on the study. In general, CC50 refers to the concentration giving 50% cytotoxicity. Take `CCCCOc1ccc(/C=C/C=C/C(=O)NO)cc1`: the MIC50 in the data set on Mycobacterium marinum is > 100 µg/mL; in data set [1], 38.6 µg/mL (≈ 148 µM); in data set [3] it was > 100 µg/mL; in data set [4] it was 27.2 µg/mL (≈ 104 µM). Besides, the MIC90 in data set [1] was > 100 µg/mL; in data set [4] it was 59.3 µg/mL (≈ 227 µM). Further, the CC50 at 24 h in data set [2] was > 125 µg/mL.
Take `CCCCCCCCc1ccc(/C=C/C=C/C(=O)NO)cc1`: the MIC50 with Mycobacterium marinum is 49.4 µg/mL (≈ 164 µM); in data set [1] it was > 100 µg/mL; in data set [3] it was > 100 µg/mL; in data set [4], > 100 µg/mL. Also, in the data set with Mycobacterium marinum, the MIC90 was > 100 µg/mL. Also, in data set [2], the CC50 at 24 h was < 10 µg/mL.
Regarding `O=C(/C=C/c1ccc(-c2ccccc2)cc1)NO`, the MIC50 is 20.8 µg/mL (≈ 86.9 µM) in the data set on Mycobacterium marinum, 20.6 µg/mL (≈ 86.1 µM) in data set [1], > 100 µg/mL in data set [3] and > 100 µg/mL in data set [4]. In addition, the MIC90 is 68.6 µg/mL (≈ 287 µM) with Mycobacterium marinum and > 100 µg/mL in data set [1]. Besides, the CC50 at 24 h in data set [2] worked out at 16 µg/mL (≈ 66.9 µM).
In the case of `CCCC(=O)ONC(=O)/C=C/C=C/c1ccc(F)cc1`, the MIC50 in the data set with Mycobacterium marinum is 7.9 µg/mL (≈ 28.5 µM); in data set [1], 11.9 µg/mL (≈ 42.9 µM); in data set [3], > 100 µg/mL; in data set [4] it was > 100 µg/mL. The results for the MIC90 (with Mycobacterium marinum; in data set [1]) were 22.4 µg/mL (≈ 80.8 µM) and 59.3 µg/mL (≈ 214 µM), respectively. Also, the CC50 at 24 h in data set [2] was > 125 µg/mL.
`COc1ccc(/C=C/C=C/C(=O)NN)cc1`: the MIC50 in the data set with Mycobacterium marinum was 12.6 µg/mL (≈ 57.7 µM); in data set [1] it was 18.1 µg/mL (≈ 82.9 µM); in data set [3], > 100 µg/mL; in data set [4], > 100 µg/mL. Also, the MIC90 with Mycobacterium marinum amounted to 13.3 µg/mL (≈ 60.9 µM); in data set [1] it was 46.7 µg/mL (≈ 214 µM). Besides, in data set [2], the CC50 at 24 h came to 120 µg/mL (≈ 550 µM).
For `NNC(=O)/C=C/C=C/c1ccc(C(F)(F)F)cc1`, the MIC50 is > 100 µg/mL with Mycobacterium marinum, 23.7 µg/mL (≈ 92.5 µM) in data set [1], 5.7 µg/mL (≈ 22.2 µM) in data set [3] and > 100 µg/mL in data set [4]. Further, the MIC90 in data set [1] is > 100 µg/mL; in data set [3], 19.4 µg/mL (≈ 75.7 µM). For the same compound, the cytotoxic concentration (CC50) at 24 h in data set [2] is > 125 µg/mL.
Consider `O=C(/C=C/C=C/c1cccc(F)c1)NO`, for which the MIC50 in the data set on Mycobacterium marinum was found to be 7.5 µg/mL (≈ 36.2 µM); in data set [1], 7.6 µg/mL (≈ 36.7 µM); in data set [3], 6 µg/mL (≈ 29 µM); in data set [4] it was 36.8 µg/mL (≈ 178 µM). Also, the MIC90 in the data set on Mycobacterium marinum was 39.3 µg/mL (≈ 190 µM); in data set [1], > 100 µg/mL; in data set [3], 19 µg/mL (≈ 91.7 µM); in data set [4], > 100 µg/mL. In addition, in data set [2], the CC50 at 24 h was < 10 µg/mL.
As for `O=C(/C=C/C=C/c1ccc(F)cc1)NO`, the MIC50 in the data set on Mycobacterium marinum was 18.1 µg/mL (≈ 87.4 µM); in data set [1], > 100 µg/mL; in data set [3], > 100 µg/mL; in data set [4], > 100 µg/mL. In the data set on Mycobacterium marinum, the MIC90 was > 100 µg/mL. For the same compound, in data set [2], the CC50 at 24 h is < 10 µg/mL.
Take `CCCCCCCOc1ccc(/C=C/C=C/C(=O)NO)cc1`: the MIC50 was 48.3 µg/mL (≈ 159 µM) in the data set on Mycobacterium marinum, > 100 µg/mL in data set [1], > 100 µg/mL in data set [3] and > 100 µg/mL in data set [4]. The MIC90 in the data set on Mycobacterium marinum came to 68.3 µg/mL (≈ 225 µM). The CC50 at 24 h in data set [2] worked out at 67 µg/mL (≈ 221 µM).
As for `CCCCCCCOc1ccc(/C=C/C=C/C(=O)NN)cc1`, the MIC50 with Mycobacterium marinum was > 100 µg/mL; in data set [1], 27 µg/mL (≈ 89.3 µM); in data set [3], 9.7 µg/mL (≈ 32.1 µM); in data set [4], 26.6 µg/mL (≈ 88 µM). Further, the figures for the MIC90 in data set [1], in data set [3] and in data set [4] were 29.1 µg/mL (≈ 96.2 µM), 26.1 µg/mL (≈ 86.3 µM) and > 100 µg/mL, respectively. Moreover, the CC50 at 24 h in data set [2] is 64 µg/mL (≈ 212 µM).
With `COc1ccc(/C=C/C=C/C(=O)NO)cc1`, the MIC50 with Mycobacterium marinum is 14.8 µg/mL (≈ 67.5 µM); in data set [1], 48 µg/mL (≈ 219 µM); in data set [3], > 100 µg/mL; in data set [4], > 100 µg/mL. Besides, the MIC90 in the data set with Mycobacterium marinum was 62.1 µg/mL (≈ 283 µM); in data set [1], > 100 µg/mL. Moreover, the CC50 at 24 h in data set [2] was < 10 µg/mL.
`NNC(=O)/C=C/c1ccc(C(F)(F)F)cc1`: the MIC50 in the data set with Mycobacterium marinum is > 100 µg/mL; in data set [1], 20.4 µg/mL (≈ 88.6 µM); in data set [3], 46 µg/mL (≈ 200 µM); in data set [4] it was > 100 µg/mL. For the same compound, the MIC90 was found to be 44.2 µg/mL (≈ 192 µM) in data set [1] and 46.8 µg/mL (≈ 203 µM) in data set [3]. Also, the CC50 at 24 h in data set [2] was > 125 µg/mL.
With `O=C(/C=C/C=C/c1ccncc1)NO`, the MIC50 with Mycobacterium marinum was 26.9 µg/mL (≈ 141 µM); in data set [1] it was 19.4 µg/mL (≈ 102 µM); in data set [3] it was > 100 µg/mL; in data set [4] it was > 100 µg/mL. In addition, the values for the MIC90 (in the data set with Mycobacterium marinum; in data set [1]) were > 100 µg/mL and 27.6 µg/mL (≈ 145 µM), respectively. Besides, in data set [2], the 50% cytotoxic concentration (CC50) at 24 h is < 10 µg/mL.
In the case of `CCCCCCCCCCOc1ccc(/C=C/C=C/C(=O)NO)cc1`, the MIC50 (with Mycobacterium marinum; in data set [1]; in data set [3]; in data set [4]) was > 100 µg/mL throughout. Moreover, the CC50 at 24 h in data set [2] was > 125 µg/mL.
Consider `NNC(=O)/C=C/c1ccc(F)cc1`, for which the MIC50 with Mycobacterium marinum was 60.5 µg/mL (≈ 336 µM); in data set [1] it was > 100 µg/mL; in data set [3], > 100 µg/mL; in data set [4], > 100 µg/mL. In addition, the MIC90 in the data set on Mycobacterium marinum was 80.4 µg/mL (≈ 446 µM). Besides, the 50% cytotoxic concentration (CC50) at 24 h in data set [2] was < 10 µg/mL.

Source of the values: ChEMBL document CHEMBL5143637, “Design, synthesis and antibacterial activity against pathogenic mycobacteria of conjugated hydroxamic acids, hydrazides and O-alkyl/O-acyl protected hydroxamic derivatives” (Bioorg Med Chem Lett, 2022).
